One assay addresses DAR-2 (Drosophila melanogaster, UniProt Q7KRX1). The assay is described as follows: DAR-2 (allatostatin receptor) calcium response FLIPR assay in transfected CHO cells. The conditions noted are these: CHO cells transfected with DAR-2 DNA; calcium signal (Fluo-3AM, FLIPR). The assay is classed as cell-based. As for the experimental part: Compounds of the invention were evaluated in an allatostatin receptor binding assay as has been described (Larsen, M. J. et. al., Biochemical and Biophysical Reseach Communications, 2001, 286, 895-901; Lowery, D. E., et. al., 2001, WO 01/31005). Anthelmintic activity was evaluated in a Ascaris suum muscle tension assay as has been described (Bowman, J. W., et. al., J Neurophys., 1995, 74(5), 1880-8; Davis, R. E., et. al., J. Neurosci., 1989, 9, 403-414).
As previously described (Larsen op.cit.), CHO cells were transfected with the DAR-2 DNA on 10 cm plates ([…]) and were trypsinized 24 h after transfections and were plated at a density of 2×10^4 cells/well in black-walled, 96-well plates and incubated for an additional 24 hrs at 37° C./5% CO2 either with or without pertussis toxin (PTX, 100 ng/ml). On the day of treatment, the media were aspirated, the cells were washed with HBBS/HEPES (Hank's Balanced Salt Solution, supplemented with 10 mM HEPES) and incubated with 4 μM Fluo-3AM in HBSS/HEPES, additionally supplemented with 2.5 mM probenecid to inhibit multi drug resistant pump (0.1 ml/well) for 1 h at 37° C./5% CO2. Plates were washed twice with warm HBSS/HEPES/ probenecid buffer immediately prior to activation of the calcium response and 100 μl buffer/per well was left after the last wash. A calcium response was initiated by the addition of candidate receptor agonist compounds (2× concentration in HBSS/HEPES, 100 μl/well). The DSK-R1/SHEP cells were loaded for 1 h at 37° C./5% CO2 with 4 μM calcium green/0.02% pluronic acid in modified Earle's balanced salt solution containing 4 mM CaCl2 dihydrate, 0.8 mM MgSO4.7H2O, 20 mM NaCl, 20 mM Tris-HEPES, 120 mM N-methyl-D-glucamine/HCl, 5.3 mM KCl, […], and 9 mM Tris base. Fluorescence was measured on a 96-well plate-based fluorescence imaging plate reader (FLIPR) with an argon laser (Molecular Devices, Sunnyvale, Calif.). Basal fluorescence of cells was measured for 20 seconds prior to addition of candidate agonist and the basal fluorescence level was subtracted from the response signal. The calcium signal was measured for approximately 200 seconds with readings every two seconds. Calcium ionophore A23187 was used as a control for non-receptor specific calcium release. […]
Sequence of DAR-2 (Q7KRX1 entry or part of it): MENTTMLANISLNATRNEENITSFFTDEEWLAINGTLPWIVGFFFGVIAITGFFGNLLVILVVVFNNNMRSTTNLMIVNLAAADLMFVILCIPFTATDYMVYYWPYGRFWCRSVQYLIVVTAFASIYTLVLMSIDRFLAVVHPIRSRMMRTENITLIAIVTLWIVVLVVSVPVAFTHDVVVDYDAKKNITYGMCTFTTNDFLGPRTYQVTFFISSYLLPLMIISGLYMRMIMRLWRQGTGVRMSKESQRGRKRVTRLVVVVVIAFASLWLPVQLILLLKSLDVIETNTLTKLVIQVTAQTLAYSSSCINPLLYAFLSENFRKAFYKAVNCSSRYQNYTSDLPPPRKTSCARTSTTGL
As for `CC(=O)Nc1ccc(C(=O)CSc2nnc(-c3ccncc3)n2-c2ccccc2)cc1[N+](=O)[O-]` [Compound 9], the IC50 turned out to be 765 nM. On to `CC(=O)Nc1ccc(C(=O)CSc2nnc(-c3ccncc3)n2-c2ccccc2)cc1` [Compound 10], for which the IC50 was 297 nM. The same measure, in the same setting: the result for `COc1ccc(C(=O)CSc2nnc(-c3ccc(OC)cc3)n2-c2ccccc2)cc1` [Compound 43] reads 0.0014 nM; that for `COc1ccc(-n2c(SCC(=O)c3ccc4c(c3)OCCO4)nnc2-c2ccncc2)cc1` [Compound 36], 103 nM; that for `O=C(CSc1nnc(-c2ccncc2)n1-c1ccccc1)c1ccc(Cl)cc1` [Compound 7], 77 nM. On to `O=C(CSc1nnc(-c2ccncc2)n1-c1ccccc1)c1ccc(Cl)cc1Cl` [Compound 13], for which the IC50 came out at 1200 nM. `COc1ccc(C(=O)CSc2nnc(-c3ccncc3)n2-c2ccccc2)cc1` [Compound 6]: the concentration for half-maximal inhibition (IC50) was 54 nM. Still for that read-out and setting: the result for `O=C(CSc1nnc(-c2ccncc2)n1-c1ccccc1)c1ccc2c(c1)OCCO2` [Compound 14] reads 436 nM; that for `O=C(CSc1nnc(-c2ccncc2)n1-c1ccccc1)c1ccc(F)cc1` [Compound 11], 268 nM.

For `O=C(CSc1nnc(-c2ccncc2)n1-c1ccccc1)c1ccccc1` [Compound 12], the IC50 was determined as 124 nM.

On to `O=C(CSc1nnc(-c2ccncc2)n1-c1ccccc1)c1ccc2[nH]c(=O)oc2c1` [Compound 15], for which the 50% inhibitory concentration (IC50) stood at 4500 nM.

Another assay has as its system Ascaris suum muscle strip. The assay is described as follows: Ascaris suum muscle tension assay. The following applies: 30 uM final bath concentration; 2 cm Ascaris suum muscle strip in Ascaris Ringers Solution, 37°. The method, then:
Compounds of the invention were evaluated in an allatostatin receptor binding assay as has been described (Larsen, M. J. et. al., Biochemical and Biophysical […] Communications, 2001, 286, 895-901; Lowery, D. E., et. al., 2001, WO 01/31005). Anthelmintic activity was evaluated in a Ascaris suum muscle tension assay as has been described (Bowman, J. W., et. al., J Neurophys., 1995, 74(5), 1880-8; Davis, R. E., et. al., J. Neurosci., 1989, 9, 403-414). As previously described (Bowman, op.cit.), a 2 cm segment of Ascaris suum muscle strip was suspended in a muscle bath filled with 37° Ascaris Ringers Solution {ARS; in mM: KCl (24.5), CaCl2 (5.9), MgCl2 (4.9), NaCl (4), NaC2 H3O2 (125) and Tris (5); pH 7.4}. The preparations were initially set at 12-15 g of tension and allowed to stabilize for approximately 15-30 minutes before drug treatment. Test compounds were added by pipet to the bath with final concentration of 30 uM reflecting the dilution in the test chamber. Raw data was collected from the BioReportTM program.
In the case of `COc1ccc(C(=O)CSc2nnc(-c3ccncc3)n2-c2ccccc2)cc1` [Compound 6], the Activity entry was “Excitatory”.

The term IC50 denotes the point on the concentration scale where inhibition reaches its midpoint.

The record behind these values is patent US20040171650A1, “Novel anthelmintic and insecticidal compositions” (priority 2003, published 2004).
